Read-outs that look alike come from different tables or passages of the source.

Here are results for 59 compounds from patent US12552796B2, “EED inhibitor, and preparation method therefor and use thereof” (SHANGHAITECH UNIVERSITY, priority 2019, dated 2026).

Assay [1] relates to cellular H3K27 methylation. In words: Cellular H3K27 methylation assay (Western blot of H3K27me3 in HeLa cells). Type of assay: cell-based. Particulars: Homo sapiens, 72 h, read-out: PD IC50. For orientation: A western blot detects proteins with antibodies after separation by electrophoresis.
For assay [2], the system named is WSU-DLCL2 cells. In words: Cell proliferation assay, WSU-DLCL2. It is filed as cell-based. Particulars: Homo sapiens. The method, then: Human B-cell non-Hodgkin's lymphoma cells WSU-DLCL2, Karpas422 and Pfeiffer were cultured in cell culture flasks in a sterile incubator with 95% relative humidity and 5% CO2 at 37° C. The medium was RPMI-1640 (Gibco, product No. 31800022) containing 15% fetal bovine serum (FBS, Gibco, product No. 10099141) and 0.1% penicillin/streptomycin solution (P/S). In order to assay the effects of compounds on cell proliferation, cells in exponential growth phase were seeded into a 12-well plate (Nunc, product No. 150628) with 1 mL of medium per well, wherein WSU-DLCL2 and Karpas422 were seeded at a density of 1×10^5 cells/well, and Pfeiffer was seeded at a density of 2×10^5 cells/well. At the same time, different concentrations of compounds were added to the wells that had seeded with cells (6 concentrations were set for each compound at 3-fold serial dilution), and the final concentration of DMSO was 0.1%. After that, the number of viable cells was determined by Vi-CELL (Beckman Coulter) for WSU-DLCL2 and Pfeiffer every 3 days, and for Karpas422 on days 4, 7, and 11, respectively. The cells counted each time were seeded into a new 12-well plate at the same density, and supplemented with fresh medium to 1 mL. Different concentrations of compounds were added at the same time. WSU-DLCL2 and Pfeiffer were cultured to the 9th day, and Karpas422 was cultured to the 14th day. Cell data were collected uniformly, and analyzed with GraphPad prisim5. Dose curves were fitted, and IC50 values of the assay compounds were obtained.

The mark [3] stands for this setting: HeLa cells, 3 days, H3K27me3 level by Western blot.
Where [4] appears, read: WSUDLCL2, WSU-DLCL2 cells, cultured to the 9th day, read-out: Anti-proliferation IC50.

For the compound `CC(Oc1cnc(NCc2c(F)ccc3c2CCO3)n2cnnc12)C1COC1` (centres unmarked) [HJM-106], the values for the IC50 in assay [1] (setting [3]) and in assay [2] (setting [4]) were 57.7 nM and 39.8 nM, respectively. On to `CCOCCc1cnc(NCc2c(F)ccc3c2CCO3)n2cnnc12` [HJM-010], for which the values for the IC50 in assay [1] (setting [3]) and in assay [2] (setting [4]) were 44.6 nM and 77.8 nM, respectively. Take `COCCOCC(=O)Nc1cnc(NCc2c(F)ccc3c2CCO3)n2cnnc12` [HJM-084]: the values for the IC50 in assay [1] (setting [3]) and in assay [2] (setting [4]) were 84 nM and 86.9 nM, respectively. As to `COCCCc1cnc(NCc2c(F)ccc3c2CCO3)n2cnnc12` [HJM-011], the IC50 in assay [1] (setting [3]) was 33.8 nM; in assay [2] (setting [4]) it was 86.3 nM. In the case of `CN(C)CCC(=O)Nc1cnc(NCc2c(F)ccc3c2CCO3)n2cnnc12` [HJM-082], the IC50 in assay [1] (setting [3]) is 29.9 nM; in assay [2] (setting [4]), 124 nM.

In the case of `O=C(CC1CC1)Nc1cnc(NCc2c(F)ccc3c2CCO3)n2cnnc12` [HJM-031], the IC50 in assay [1] (setting [3]) stood at 39.6 nM; in assay [2] (setting [4]), 80.6 nM. Turning to `CN(C)C(=O)c1cnc(NCc2c(F)ccc3c2CCO3)n2cnnc12` [HJM-025], the IC50 in assay [1] (HeLa) came out at 43.3 nM; in assay [2] (WSUDLCL2, read-out: Anti-proliferation IC50), 26.4 nM. With `COCCOc1cnc(NCc2c(F)ccc3c2CCO3)n2cnnc12` [HJM-137], the IC50 in assay [1] (setting [3]) is 62 nM; in assay [2] (setting [4]), 51.4 nM.

As for `Fc1ccc2c(c1CNc1ncc(OCC3CCO3)c3nncn13)CCO2` (centres unmarked) [HJM-103], the IC50 in assay [1] (setting [3]) was found to be 94.2 nM; in assay [2] (setting [4]) it was 148 nM. As to `Fc1ccc2c(c1CNc1ncc(OC3CCC3)c3nncn13)CCO2` [HJM-017], the IC50 was found to be 26.3 nM in assay [1] (setting [3]) and 113 nM in assay [2] (setting [4]). Regarding `O=C(Nc1cnc(NCc2c(F)ccc3c2CCO3)n2cnnc12)C1CCCO1` (centres unmarked) [HJM-037], the figures for the IC50 in assay [1] (setting [3]) and in assay [2] (setting [4]) were 64.7 nM and 115 nM, respectively.

On to `O=C(c1cnc(NCc2c(F)ccc3c2CCO3)n2cnnc12)N1CCOCC1` [HJM-027], for which the IC50 is 89.5 nM in assay [1] (setting [3]) and 58 nM in assay [2] (setting [4]). Turning to `Fc1ccc2c(c1CNc1ncc(OCC3CCCO3)c3nncn13)CCO2` (centres unmarked) [HJM-101], the IC50 in assay [1] (setting [3]) was found to be 39.5 nM; in assay [2] (setting [4]) it was 52.6 nM. As for `Fc1ccc2c(c1CNc1ncc(OCC3CCOCC3)c3nncn13)CCO2` [HJM-020], the IC50 in assay [1] (setting [3]) amounted to 39.8 nM; in assay [2] (setting [4]) it was 48.5 nM.

On to `N#CCOc1cnc(NCc2c(F)ccc3c2CCO3)n2cnnc12` [HJM-145], for which the IC50 was found to be 32.8 nM in assay [1] (setting [3]) and 47.3 nM in assay [2] (setting [4]).

Turning to `CC(C)Oc1cnc(NCc2c(F)ccc3c2CCO3)n2cnnc12` [HJM-015], the IC50 stood at 25.4 nM in assay [1] (setting [3]) and 115 nM in assay [2] (setting [4]). `COCCCOc1cnc(NCc2c(F)ccc3c2CCO3)n2cnnc12` [HJM-138]: the IC50 in assay [1] (setting [3]) was 49.8 nM; in assay [2] (setting [4]), 43.2 nM. With `O=C(Nc1cnc(NCc2c(F)ccc3c2CCO3)n2cnnc12)c1ccccc1` [HJM-042], the IC50 in assay [1] (setting [3]) worked out at 60.5 nM; in assay [2] (setting [4]), 82 nM.

As to `CN(C(=O)CC1CC1)c1cnc(NCc2c(F)ccc3c2CCO3)n2cnnc12` [HJM-073], the IC50 in assay [1] (setting [3]) was 39.3 nM; in assay [2] (setting [4]), 29.4 nM. Take `COCCN(C)C(=O)c1cnc(NCc2c(F)ccc3c2CCO3)n2cnnc12` [HJM-152]: the figures for the IC50 in assay [1] (setting [3]) and in assay [2] (setting [4]) were 73.2 nM and 106 nM, respectively. For `O=C(CCC(F)(F)F)Nc1cnc(NCc2c(F)ccc3c2CCO3)n2cnnc12` [HJM-033] the same measures were 25.9 nM and 94.7 nM. As for `CN1CC(Oc2cnc(NCc3c(F)ccc4c3CCO4)n3cnnc23)C1` [HJM-114], the IC50 in assay [1] (setting [3]) was determined as 68 nM; in assay [2] (setting [4]) it was 211 nM. Take `Fc1ccc2c(c1CNc1ncc(OC3COC3)c3nncn13)CCO2` [HJM-100]: the values for the IC50 in assay [1] (setting [3]) and in assay [2] (setting [4]) were 54.3 nM and 54.8 nM, respectively.

`Fc1ccc2c(c1CNc1ncc(OCCOc3ccccc3)c3nncn13)CCO2` [HJM-126]: the IC50 in assay [1] (setting [3]) amounted to 92.1 nM. As for `O=C(CN1CCOCC1)Nc1cnc(NCc2c(F)ccc3c2CCO3)n2cnnc12` [HJM-032], the IC50 in assay [1] (setting [3]) turned out to be 317 nM.

For `COCC(=O)Nc1cnc(NCc2c(F)ccc3c2CCO3)n2cnnc12` [HJM-083], the IC50 was 28.5 nM in assay [1] (setting [3]) and 28 nM in assay [2] (setting [4]).

For `O=C(Nc1cnc(NCc2c(F)ccc3c2CCO3)n2cnnc12)C1CCOC1` (centres unmarked) [HJM-038], the IC50 in assay [1] (setting [3]) turned out to be 187 nM.

Take `[2H]C([2H])(Nc1ncc(N(C(=O)C2CC2)C([2H])([2H])[2H])c2nncn12)c1c(F)ccc2c1CCO2` [HJM-078]: in assay [1] (setting [3]), the IC50 was found to be 12.1 nM. Same read-out and setting: then `O=C(Nc1cnc(NCc2c(F)ccc3c2CCO3)n2cnnc12)c1ccccc1F` [HJM-092], with 139 nM; and `O=C(Nc1cnc(NCc2c(F)ccc3c2CCO3)n2cnnc12)C1CCCCO1` (centres unmarked) [HJM-039], with 67.2 nM. In the case of `O=C(Nc1cnc(NCc2c(F)ccc3c2CCO3)n2cnnc12)N1CCOCC1` [HJM-099], in assay [1] (setting [3]), the IC50 turned out to be 1590 nM.

With `COCCN(C)CC(=O)Nc1cnc(NCc2c(F)ccc3c2CCO3)n2cnnc12` [HJM-085], the IC50 in assay [1] (setting [3]) was determined as 62.5 nM. Still for that read-out and setting: then `O=C(c1cnc(NCc2c(F)ccc3c2CCO3)n2cnnc12)N1CCC1` [HJM-153], with 93.2 nM.

`Fc1ccc2c(c1CNc1ncc(NCC3CC3)c3nncn13)CCO2` [HJM-022]: the IC50 in assay [1] (setting [3]) was 284 nM. For the compound `Cc1ncccc1CCc1cnc(NCc2c(F)ccc3c2CCO3)n2cnnc12` [HJM-005], the IC50 in assay [1] (setting [3]) turned out to be 454 nM. For the compound `Fc1ccc2c(c1CNc1ncc(N3CCC(F)(F)C3)c3nncn13)CCO2` [HJM-062], the IC50 in assay [1] (setting [3]) turned out to be 445 nM.

As to `[2H]C([2H])(Nc1ncc(OCC2CCOC2)c2nncn12)c1c(F)ccc2c1CCO2` (centres unmarked) [HJM-111], in assay [1] (setting [3]), the IC50 was 37.9 nM. In the case of `COc1ccc(OCCOc2cnc(NCc3c(F)ccc4c3CCO4)n3cnnc23)cc1` [HJM-127], the IC50 in assay [1] (setting [3]) came out at 108 nM. In the case of `CN(C)CCOc1cnc(NCc2c(F)ccc3c2CCO3)n2cnnc12` [HJM-119], the IC50 in assay [1] (setting [3]) was determined as 264 nM. In the case of `CCN(CC)C(=O)c1cnc(NCc2c(F)ccc3c2CCO3)n2cnnc12` [HJM-026], in assay [1] (setting [3]), the IC50 came to 75.6 nM. With `Fc1ccc2c(c1CNc1ncc(C3CCCO3)c3nncn13)CCO2` (centres unmarked) [HJM-003], the results for the IC50 in assay [1] (setting [3]) and in assay [2] (setting [4]) were 54.3 nM and 131 nM, respectively. For the compound `O=C(Nc1cnc(NCc2c(F)ccc3c2CCO3)n2cnnc12)c1ccncc1` [HJM-044], in assay [1] (setting [3]), the IC50 was 288 nM.

In the case of `Fc1ccc2c(c1CNc1ncc(NCCN3CCOCC3)c3nncn13)CCO2` [HJM-023], in assay [1] (setting [3]), the IC50 amounted to 1160 nM. For `CC(F)C(=O)Nc1cnc(NCc2c(F)ccc3c2CCO3)n2cnnc12` (centres unmarked) [HJM-072], the IC50 is 30 nM in assay [1] (setting [3]) and 120 nM in assay [2] (setting [4]). For `Fc1ccc2c(c1CNc1ncc(OCc3cncnc3)c3nncn13)CCO2` [HJM-131], the IC50 in assay [1] (setting [3]) came to 130 nM. Regarding `COc1cccc(F)c1CNc1ncc(/C=C/CN2CCCCC2)c2nncn12` [HJM-049], the IC50 in assay [1] (setting [3]) came to 296 nM.

For `Fc1ccc2c(c1CNc1ncc(OC3CCOC3)c3nncn13)CCO2` (centres unmarked) [HJM-018], the IC50 in assay [1] (setting [3]) was found to be 59.2 nM. With `Fc1ccc2c(c1CNc1ncc(OCC3CC3)c3nncn13)CCO2` [HJM-019], the IC50 worked out at 29.4 nM in assay [1] (setting [3]) and 72 nM in assay [2] (setting [4]). As for `Fc1ccc2c(c1CNc1ncc(OCc3ccncc3)c3nncn13)CCO2` [HJM-141], in assay [1] (setting [3]), the IC50 worked out at 64.4 nM.

For `CN(CC1CC1)C(=O)Nc1cnc(NCc2c(F)ccc3c2CCO3)n2cnnc12` [HJM-098], the IC50 in assay [1] (setting [3]) turned out to be 309 nM. For the compound `OC1CCC(Oc2cnc(NCc3c(F)ccc4c3CCO4)n3cnnc23)CC1` (centres unmarked) [HJM-121], the IC50 in assay [1] (setting [3]) is 494 nM. Take `Fc1ccc2c(c1CNc1ncc(OCc3ccccc3)c3nncn13)CCO2` [HJM-139]: the IC50 in assay [1] (HeLa) amounted to 120 nM.

`O[C@H]1CC[C@H](COc2cnc(NCc3c(F)ccc4c3CCO4)n3cnnc23)CC1` [HJM-125]: the IC50 in assay [1] (setting [3]) worked out at 463 nM. As to `CN(C)C(=O)Oc1cnc(NCc2c(F)ccc3c2CCO3)n2cnnc12` [HJM-151], the IC50 in assay [1] (HeLa) came to 91.1 nM. For `Fc1ccc2c(c1CNc1ncc(OC3CC(F)(F)C3)c3nncn13)CCO2` [HJM-107], the IC50 in assay [1] (setting [3]) was determined as 48.5 nM. For the compound `Cc1ccc(COc2cnc(NCc3c(F)ccc4c3CCO4)n3cnnc23)cn1` [HJM-130], the IC50 in assay [1] (setting [3]) was found to be 104 nM.

Regarding `Fc1ccc2c(c1CNc1ncc(OCc3cccnc3)c3nncn13)CCO2` [HJM-140], the IC50 in assay [1] (setting [3]) came to 21.4 nM. Turning to `O=C(COc1cnc(NCc2c(F)ccc3c2CCO3)n2cnnc12)C1CC1` [HJM-146], the IC50 in assay [1] (setting [3]) worked out at 150 nM. Still for that read-out and setting: then `O=C(C1CC1)N1CC(Oc2cnc(NCc3c(F)ccc4c3CCO4)n3cnnc23)C1` [HJM-115], with 201 nM.
